Assay results reported in ChEMBL document CHEMBL1153807, “An inhibitor of CCL2-induced chemotaxis from the fungus Leptoxyphium sp” (J Nat Prod, 2009).
The source made the active and inactive calls. The calls are words filed in the database; no cut-off is given here.

What was measured:
Assay type in all cases: cell-based
[1] = Cytotoxicity against human monocytes at 100 uM after 24 hrs; settings: monocyte
[2] = molecular target: C-C chemokine receptor type 2 (Homo sapiens) (UniProt P41597); assay: Inhibition of CCR2 in human monocytes assessed as cell migration at 100 uM after 30 mins
Sequence of C-C chemokine receptor type 2 (Homo sapiens) (P41597 whole entry, looked up): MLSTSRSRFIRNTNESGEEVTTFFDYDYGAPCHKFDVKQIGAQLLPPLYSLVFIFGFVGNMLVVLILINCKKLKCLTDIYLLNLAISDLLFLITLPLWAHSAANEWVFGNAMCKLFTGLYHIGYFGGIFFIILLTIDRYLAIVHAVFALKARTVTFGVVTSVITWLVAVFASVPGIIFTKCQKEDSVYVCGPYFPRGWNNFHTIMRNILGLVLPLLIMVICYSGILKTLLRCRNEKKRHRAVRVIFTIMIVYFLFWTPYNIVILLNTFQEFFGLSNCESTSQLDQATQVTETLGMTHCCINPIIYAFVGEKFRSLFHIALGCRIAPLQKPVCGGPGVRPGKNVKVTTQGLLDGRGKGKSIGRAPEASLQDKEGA

[3] = molecular target: C-C chemokine receptor type 2 (Homo sapiens) (UniProt P41597); assay: Inhibition of CCR2 in human monocytes assessed as CCL2-induced cell migration at 100 uM after 1.5 hrs by micro-Boyden chamber
[4] = molecular target: C-C chemokine receptor type 2 (Homo sapiens) (UniProt P41597); assay: Inhibition of CCR2 in human monocytes assessed as CCL2-induced cell migration at 10 uM after 1.5 hrs by micro-Boyden chamber

inhibition [2] | inhibition [3] | inhibition [4] | SMILES | Activity [1]
inactive | inactive | – | O=C1N[C@@H](Cc2ccc(O)cc2)C(=O)N2CCC[C@@H]12 | Non-toxic
– | – | – | CON1C(=O)C2NC(=O)[C@@]13Oc1cc(O)c(Cl)cc1[C@@H]3SS2 | Toxic
– | inactive | – | CC(C)C[C@@H]1C(=O)N[C@@H](Cc2c[nH]c3ccccc23)C(=O)N1C | Non-toxic
– | – | Active | O=C1N[C@H](Cc2cc(Cl)c(O)c(Cl)c2)C(=O)N2CCC[C@H]12 | Non-toxic
